Here are results for 9 compounds from patent US20170007709A1, “GLYCOAMINO ACID AND USE THEREOF” (AJINOMOTO CO., INC., priority 2014, published 2017).

Data set [1] in a line: Solubility evaluation in water at 25° C. It counts as physicochemical. To be noted: for solubility, amino acid-converted weight concentration / solubility, weight concentration: water, stirred for 2 days. The protocol: The concentration was measured by HPLC. […] Similarly, the solubility of DOPA and DOPA-Glc was measured. […] Furthermore, the solubility of DOPA and DOPA-Glc was similarly measured using water (0.5 ml) in a thermostatic tank at 25° C. […] Therefore, the samples were diluted, and solubility was measured by HPLC.

The nature of data set [2]: Dissolution rate evaluation in water. It counts as physicochemical. To be noted: 25 ml stirring water, inside temperature 32° C., n=1. The protocol:
Val, Ile, Leu or glycoamino acid corresponding thereto (Val-Glc, Ile-Glc, Leu-Glc) were each added to stirring water (25 ml, inside temperature 32° C.) in a hot-water bath at 35° C., and the dissolution rate was measured. As compared to Val, Ile and Leu, Val-Glc, Ile-Glc and Leu-Glc were dissolved 4-19 times faster in equal weight and 2-19 times faster in equimolar amount.

Data set [3] can be described thus: Animal evaluation: blood amino acid concentration after oral administration. The data set is classed as in vivo. The note with it: male SD rats fasted overnight. As to the method:
Leu, Val, Ile and glycoamino acid corresponding thereto (Leu-Glc, Val-Glc, Ile-Glc) were each dissolved or suspended in distilled water to a given dose and orally administered to male 13-week-old SD rats (Japan Charles River) that was fasted overnight. Blood samples were collected from the rat tail vein before administration and 15 min, 30 min, 60 min, 90 min, 120 min after administration and partly 180 min and 300 min after administration. After separation into plasma, protein elimination and ultrafiltration with 15% sulfosalicylic acid solution was performed. The filtrate was mixed with 0.02 mmol/L hydrochloric acid at 1:1, analyzed by an amino acid analyzer (JEOL Ltd.), and blood amino acid concentration was determined.

Another data set has as its system pronase. The data set can be described thus: Enzyme evaluation: liberation of leucine by pronase. The data set is classed as in vitro ADME. To be noted: 37° C., 30 min later. The protocol:
Leu-Glc (10 mg) was dissolved in water (1 ml), pronase (0.1% aqueous solution, 100 μl) was added, and the mixture was stirred in a hot-water bath at 37° C. The mixture was diluted 10-fold with 1% aqueous phosphoric acid solution, and analyzed by HPLC.
HPLC analysis conditions were as described below.
column: […] MG (4.6×250 mm, 5 μm) column temperature: 40° C. mobile phase: A: 100 mM KH2PO4, 5 mM sodium 1-octanesulfonate (pH 2.2) B: acetonitrile eluent: A/B=9/1 isocratic flow rate: 1.5 ml/min detection: photodiode array detector measurement wavelength 210 nm injection volume: 10 μL

On to `N[C@@H](Cc1ccc(O)c(O)c1)C(=O)O` [DOPA, 3,4-dihydroxy-L-phenylalanine, reference compound], for which, in data set [1] (HPLC), the “solubility, amino acid-converted weight concentration” value stood at 0.31 g/100 g water and the “solubility, weight concentration” value is reported as 0.31 g/100 g water.

As to `N[C@@H](Cc1ccc(O)c(O)c1)C(=O)N[C@@H]1O[C@H](CO)[C@@H](O)[C@H](O)[C@H]1O` [DOPA-Glc, N-(3,4-dihydroxy-L-phenylalanyl)-β-D-glucopyranosylamine], the “solubility as compared to that of DOPA” value in data set [1] (water 0.5 ml, samples diluted, HPLC) is reported as “not less than 690 fold”. In data set [1] (water 1 ml), the “solubility as compared to the corresponding amino acid” value is “not less than 135 times” and the “weight concentration at which still dissolved” value is reported as not below 93.8 g/100 g water. In data set [1] (HPLC), the “solubility, amino acid-converted weight concentration” value was more than 215 g/100 g water and the “solubility, weight concentration” value is recorded as more than 392 g/100 g water.

Regarding `CC[C@H](C)[C@H](N)C(=O)O` [Ile, L-isoleucine, reference compound], in data set [2] (equal weight (Table 3)), the “dissolution rate, amino acid (XXX)” value is on record as “(285 sec)”. Besides, in data set [2] (equimolar quantity (Table 2)), the “dissolution rate, amino acid (XXX)” value was “(280 sec)”. In data set [1] (HPLC), the “solubility, amino acid-converted weight concentration” value is reported as 4.1 g/100 g water and the “solubility, weight concentration” value is 4.1 g/100 g water.

On to `CC[C@H](C)[C@H](N)C(=O)N[C@@H]1O[C@H](CO)[C@@H](O)[C@H](O)[C@H]1O` [Ile-Glc, N-(L-isoleucyl)-β-D-glucopyranosylamine], for which the “dissolution rate, glycoamino acid (XXX-Glc)” value (from here on “dissolution rate … (XXX-Glc)”) in data set [2] (equal weight (Table 3)) and in data set [2] (equimolar quantity (Table 2)) was 15 s each time. In addition, the “blood Ile concentration” value in data set [3] was “increased”. Also, the “solubility, amino acid-converted weight concentration” value in data set [1] (HPLC) worked out at 14.7 g/100 g water. Besides, the “solubility, weight concentration” value in data set [1] (HPLC) came out at 32.8 g/100 g water.

Take `CC(C)C[C@H](N)C(=O)O` [Leu, L-leucine, reference compound]: the “dissolution rate, amino acid (XXX)” value in data set [2] (equal weight (Table 3)) is on record as “(330 sec)”. In addition, the “dissolution rate, amino acid (XXX)” value in data set [2] (equimolar quantity (Table 2)) is “(191 sec)”. Moreover, in data set [1] (HPLC), the “solubility, amino acid-converted weight concentration” value is 2.4 g/100 g water and the “solubility, weight concentration” value was found to be 2.4 g/100 g water.

As for `CC(C)C[C@H](N)C(=O)N[C@@H]1O[C@H](CO)[C@@H](O)[C@H](O)[C@H]1O` [Leu-Glc, N-(L-leucyl)-β-D-glucopyranosylamine], in data set [2] (equal weight (Table 3)), the “dissolution rate … (XXX-Glc)” value turned out to be 21 s. Besides, in data set [2] (equimolar quantity (Table 2)), the “dissolution rate … (XXX-Glc)” value came out at 21 s. Also, the “remaining Leu-Glc” value in the data set on pronase was “almost disappeared”. Also, the “blood Leu concentration” value in data set [3] is listed as “increased”. For the same compound, in data set [1] (HPLC), the “solubility, amino acid-converted weight concentration” value was determined as 28.3 g/100 g water and the “solubility, weight concentration” value was 63 g/100 g water.

As for `N[C@@H](Cc1ccc(O)cc1)C(=O)N[C@@H]1O[C@H](CO)[C@@H](O)[C@H](O)[C@H]1O` [Tyr-Glc, N-(L-tyrosyl)-β-D-glucopyranosylamine], the “solubility as compared to the corresponding amino acid” value in data set [1] (water 1 ml) turned out to be 178 times. In data set [1] (HPLC), the “solubility, amino acid-converted weight concentration” value is reported as 8.92 g/100 g water and the “solubility, weight concentration” value came out at 16.8 g/100 g water.

With `CC(C)[C@H](N)C(=O)O` [Val, L-valine, reference compound], the “dissolution rate, amino acid (XXX)” value in data set [2] (equal weight (Table 3)) is given as “(139 sec)”. Further, the “dissolution rate, amino acid (XXX)” value in data set [2] (equimolar quantity (Table 2)) is “(80 sec)”. Besides, in data set [1] (HPLC), the “solubility, amino acid-converted weight concentration” value turned out to be 5.8 g/100 g water and the “solubility, weight concentration” value was determined as 5.8 g/100 g water.

As for `CC(C)[C@H](N)C(=O)N[C@@H]1O[C@H](CO)[C@@H](O)[C@H](O)[C@H]1O` [Val-Glc, N-(L-valyl)-β-D-glucopyranosylamine], in data set [2] (equal weight (Table 3)), the “dissolution rate … (XXX-Glc)” value worked out at 33 s. In data set [2] (equimolar quantity (Table 2)), the “dissolution rate … (XXX-Glc)” value was 33 s. For the same compound, the “blood Val concentration” value in data set [3] was “increased”. In data set [1] (HPLC), the “solubility, amino acid-converted weight concentration” value was 14.1 g/100 g water and the “solubility, weight concentration” value worked out at 33.5 g/100 g water.
